The values below come from patent publication US20140309265A1, “MACROCYCLIC COMPOUNDS FOR INHIBITION OF INHIBITORS OF APOPTOSIS” (Ensemble Therapeutics, priority 2011, published 2014).

Broadly, the IC50 is the concentration that inhibits the measured activity by half. Read a low IC50 as greater potency.

The target in one assay is T1, His-BIR3 (241-356, XIAP) (Homo sapiens, UniProt P98170).
T1 construct: additions of His-BIR3 (241-356, XIAP), fluorescein labeled SMAC peptide
Nature of the assay: XIAP-BIR3/SMAC Homogeneous Time Resolved Fluorescence (HTRF) Assay. Type of assay: binding. Particulars: Table 4. For orientation: In TR-FRET formats the signal depends on donor and acceptor labels being close together.

In assay [1] the target is T2, His-BIR2-3 (125-356, C202A/C213G, XIAP) (Homo sapiens, UniProt P98170, C202A/C213G).
T2 construct: additions of His-BIR2-3 (125-356, C202A/C213G, XIAP), fluorescein labeled dimeric SMAC peptide
Nature of the assay: XIAP-BIR2-3 Dimeric SMAC Peptide Homogeneous Time Resolved Fluorescence (HTRF) Assay. The assay is classed as binding. The note with it: XIAP BIR2-3, HTRF, Table 4.

Molecules are shown by their SMILES.

T2 sequence (P98170 125-356 C202A/C213G): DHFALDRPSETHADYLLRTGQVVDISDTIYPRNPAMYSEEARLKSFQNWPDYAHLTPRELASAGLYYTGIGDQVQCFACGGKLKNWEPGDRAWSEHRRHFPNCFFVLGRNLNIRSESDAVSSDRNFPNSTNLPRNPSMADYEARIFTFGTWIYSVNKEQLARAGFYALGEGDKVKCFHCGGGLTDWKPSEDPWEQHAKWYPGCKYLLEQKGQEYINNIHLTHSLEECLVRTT
T1 sequence (P98170 241-356): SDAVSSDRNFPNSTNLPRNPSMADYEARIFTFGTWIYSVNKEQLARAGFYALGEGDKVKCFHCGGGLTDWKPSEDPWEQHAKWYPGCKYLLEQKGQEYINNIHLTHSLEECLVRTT

On to `CN[C@@H](C)C(=O)N[C@H](C(=O)N1C[C@@H]2C[C@H]1C(=O)N[C@@H](Cc1ccc3ccccc3c1)C(=O)N[C@H](C(=O)O)Cc1ccc(cc1)OCc1cn(nn1)[C@H]1C[C@@H](C(=O)N[C@@H](Cc3ccc4ccccc4c3)C(=O)N[C@H](C(=O)N(C)CCC(=O)O)Cc3ccc(cc3)OCc3cn2nn3)N(C(=O)[C@@H](NC(=O)[C@H](C)NC)C(C)(C)C)C1)C(C)(C)C` [Compound 1028], for which the IC50 on His-BIR3 (241-356, XIAP) was less than 10 nM; in assay [1], not above 1 nM.

Consider `CN[C@@H](C)C(=O)N[C@H](C(=O)N1C[C@@H]2C[C@H]1C(=O)N[C@@H](Cc1ccc3ccccc3c1)C(=O)N[C@H](C(=O)O)Cc1ccc(cc1)OCc1cn(nn1)[C@H]1C[C@@H](C(=O)N[C@@H](Cc3ccc4ccccc4c3)C(=O)N[C@H](C(=O)NCCC(=O)O)Cc3ccc(cc3)OCc3cn2nn3)N(C(=O)[C@@H](NC(=O)[C@H](C)NC)C(C)(C)C)C1)C(C)(C)C` [Compound 1019], for which the half-maximal inhibitory concentration (IC50) was less than 10 nM against His-BIR3 (241-356, XIAP) and 1 to 10 nM in assay [1].

As to `CN[C@@H](C)C(=O)N[C@H](C(=O)N1C[C@@H]2C[C@H]1C(=O)N[C@@H](Cc1ccc3ccccc3c1)C(=O)N[C@H](C(=O)O)Cc1ccc(cc1)OCc1cn(nn1)[C@H]1C[C@@H](C(=O)N[C@@H](Cc3ccc4ccccc4c3)C(=O)N[C@H](C(=O)N[C@@H](CC(=O)O)C(=O)N[C@H](CCSC)C(=O)O)Cc3ccc(cc3)OCc3cn2nn3)N(C(=O)[C@@H](NC(=O)[C@H](C)NC)C(C)(C)C)C1)C(C)(C)C` [Compound 1038], the IC50 is 10 to 100 nM against His-BIR3 (241-356, XIAP) and more than 10 nM in assay [1].

Consider `CN[C@@H](C)C(=O)N[C@H](C(=O)N1C[C@@H]2C[C@H]1C(=O)N[C@@H](Cc1ccc3ccccc3c1)C(=O)N[C@H](C(=O)O)Cc1ccc(cc1)OCc1cn(nn1)[C@H]1C[C@@H](C(=O)N[C@@H](Cc3ccc4ccccc4c3)C(=O)N[C@H](C(=O)NCc3cccc(-c4nnn[nH]4)c3)Cc3ccc(cc3)OCc3cn2nn3)N(C(=O)[C@@H](NC(=O)[C@H](C)NC)C(C)(C)C)C1)C(C)(C)C` [Compound 1029], for which the IC50 on His-BIR3 (241-356, XIAP) was in the range of 10 to 100 nM; in assay [1] it was 1 to 10 nM.

For `CN[C@@H](C)C(=O)N[C@H](C(=O)N1C[C@@H]2C[C@H]1C(=O)N[C@@H](Cc1ccc3ccccc3c1)C(=O)N[C@H](C(=O)O)Cc1ccc(cc1)OCc1cn(nn1)[C@H]1C[C@@H](C(=O)N[C@@H](Cc3ccc4ccccc4c3)C(=O)N[C@H](C(=O)NS(=O)(=O)CC3CC3)Cc3ccc(cc3)OCc3cn2nn3)N(C(=O)[C@@H](NC(=O)[C@H](C)NC)C(C)(C)C)C1)C(C)(C)C` [Compound 1037], the IC50 fell in the range of 10 to 100 nM at His-BIR3 (241-356, XIAP) and 1 to 10 nM in assay [1].

Turning to `CN[C@@H](C)C(=O)N[C@H](C(=O)N1C[C@@H]2C[C@H]1C(=O)N[C@@H](Cc1ccc3ccccc3c1)C(=O)N[C@H](C(=O)O)Cc1ccc(cc1)OCc1cn(nn1)[C@H]1C[C@@H](C(=O)N[C@@H](Cc3ccc4ccccc4c3)C(=O)N[C@H](C(=O)NCCCC(=O)O)Cc3ccc(cc3)OCc3cn2nn3)N(C(=O)[C@@H](NC(=O)[C@H](C)NC)C(C)(C)C)C1)C(C)(C)C` [Compound 1032], the IC50 at His-BIR3 (241-356, XIAP) was less than 10 nM; in assay [1], not above 1 nM.

On to `CN[C@@H](C)C(=O)N[C@H](C(=O)N1C[C@@H]2C[C@H]1C(=O)N[C@@H](Cc1ccc3ccccc3c1)C(=O)N[C@H](C(=O)O)Cc1ccc(cc1)OCc1cn(nn1)[C@H]1C[C@@H](C(=O)N[C@@H](Cc3ccc4ccccc4c3)C(=O)N[C@H](C(=O)N3CCC(C(=O)O)CC3)Cc3ccc(cc3)OCc3cn2nn3)N(C(=O)[C@@H](NC(=O)[C@H](C)NC)C(C)(C)C)C1)C(C)(C)C` [Compound 1027], for which the IC50 against His-BIR3 (241-356, XIAP) was 10 to 100 nM; in assay [1] it was 1 to 10 nM.

Regarding `CN[C@@H](C)C(=O)N[C@H](C(=O)N1C[C@@H]2C[C@H]1C(=O)N[C@@H](Cc1ccc3ccccc3c1)C(=O)N[C@H](C(=O)O)Cc1ccc(cc1)OCc1cn(nn1)[C@H]1C[C@@H](C(=O)N[C@@H](Cc3ccc4ccccc4c3)C(=O)N[C@H](C(=O)OC)Cc3ccc(cc3)OCc3cn2nn3)N(C(=O)[C@@H](NC(=O)[C@H](C)NC)C(C)(C)C)C1)C(C)(C)C` [Compound 1001], the IC50 against His-BIR3 (241-356, XIAP) is more than 100 nM; in assay [1], more than 10 nM.

Consider `CN[C@@H](C)C(=O)N[C@H](C(=O)N1C[C@@H]2C[C@H]1C(=O)N[C@@H](Cc1ccc3ccccc3c1)C(=O)N[C@H](C(=O)O)Cc1ccc(cc1)OCc1cn(nn1)[C@H]1C[C@@H](C(=O)N[C@@H](Cc3ccc4ccccc4c3)C(=O)N[C@H](C(=O)O)Cc3ccc(cc3)NC(=O)CCc3cn2nn3)N(C(=O)[C@@H](NC(=O)[C@H](C)NC)C(C)(C)C)C1)C(C)(C)C` [Compound 1016], for which the IC50 against His-BIR3 (241-356, XIAP) is less than 10 nM; in assay [1], not above 1 nM.

As to `CN[C@@H](C)C(=O)N[C@H](C(=O)N1C[C@@H]2C[C@H]1C(=O)N[C@@H](Cc1ccc3ccccc3c1)C(=O)N[C@H](C(=O)O)Cc1ccc(cc1)NC(=O)CCc1cn(nn1)[C@H]1C[C@@H](C(=O)N[C@@H](Cc3ccc4ccccc4c3)C(=O)N[C@H](C(=O)O)Cc3ccc(cc3)NC(=O)CCc3cn2nn3)N(C(=O)[C@@H](NC(=O)[C@H](C)NC)C(C)(C)C)C1)C(C)(C)C` [Compound 1012], the IC50 at His-BIR3 (241-356, XIAP) was less than 10 nM; in assay [1], 1 to 10 nM.

Take `CN[C@@H](C)C(=O)N[C@H](C(=O)N1C[C@@H]2C[C@H]1C(=O)N[C@@H](Cc1ccc3ccccc3c1)C(=O)N[C@H](C(=O)O)Cc1ccc(cc1)OCc1cn(nn1)[C@H]1C[C@@H](C(=O)N[C@@H](Cc3ccc4ccccc4c3)C(=O)N[C@H](C(=O)O)Cc3ccc(cc3)OCCc3cn2nn3)N(C(=O)[C@@H](NC(=O)[C@H](C)NC)C(C)(C)C)C1)C(C)(C)C` [Compound 1017]: the IC50 is less than 10 nM against His-BIR3 (241-356, XIAP) and not above 1 nM in assay [1].

For `CN[C@@H](C)C(=O)N[C@H](C(=O)N1C[C@@H]2C[C@H]1C(=O)N[C@@H](Cc1ccc3ccccc3c1)C(=O)N[C@H](C(=O)O)Cc1ccc(cc1)OCc1cn(nn1)[C@H]1C[C@@H](C(=O)N[C@@H](Cc3ccc4ccccc4c3)C(=O)N[C@H](C(=O)NCc3cccc(-c4nnn[nH]4)c3)Cc3ccc(cc3)OCc3cn2nn3)N(C(=O)[C@@H](NC(=O)[C@H](C)NC)C(C)(C)C)C1)C(C)(C)C` [Compound 1025], the IC50 at His-BIR3 (241-356, XIAP) was less than 10 nM; in assay [1], 1 to 10 nM.

With `CN[C@@H](C)C(=O)N[C@H](C(=O)N1C[C@@H]2C[C@H]1C(=O)N[C@@H](Cc1ccc3ccccc3c1)C(=O)N[C@H](C(=O)O)Cc1ccc(cc1)OCc1cn(nn1)[C@H]1C[C@@H](C(=O)N[C@@H](Cc3ccc4ccccc4c3)C(=O)N[C@H](C(=O)N(C)C)Cc3ccc(cc3)OCc3cn2nn3)N(C(=O)[C@@H](NC(=O)[C@H](C)NC)C(C)(C)C)C1)C(C)(C)C` [Compound 1024], the IC50 on His-BIR3 (241-356, XIAP) is less than 10 nM; in assay [1], 1 to 10 nM.

As to `CN[C@@H](C)C(=O)N[C@H](C(=O)N1C[C@@H]2C[C@H]1C(=O)N[C@@H](Cc1ccc3ccccc3c1)C(=O)N[C@H](C(=O)O)Cc1ccc(cc1)OCc1cn(nn1)[C@H]1C[C@@H](C(=O)N[C@@H](Cc3ccc4ccccc4c3)C(=O)N[C@H](c3n[nH]oc3=O)Cc3ccc(cc3)OCc3cn2nn3)N(C(=O)[C@@H](NC(=O)[C@H](C)NC)C(C)(C)C)C1)C(C)(C)C` [Compound 1043], the IC50 against His-BIR3 (241-356, XIAP) fell in the range of 10 to 100 nM; in assay [1] it was 1 to 10 nM.

As to `CN[C@@H](C)C(=O)N[C@H](C(=O)N1CCN2CCn3cc(nn3)C[C@@H](C(=O)OC)NC(=O)[C@H](Cc3ccc4ccccc4c3)NC(=O)[C@@H]3CN(CCN3C(=O)[C@@H](NC(=O)[C@H](C)NC)C(C)C)CCn3cc(nn3)C[C@@H](C(=O)O)NC(=O)[C@H](Cc3ccc4ccccc4c3)NC(=O)[C@@H]1C2)C(C)C` [Compound 1049], the IC50 at His-BIR3 (241-356, XIAP) is more than 100 nM; in assay [1] it was 1 to 10 nM.

As for `CN[C@@H](C)C(=O)N[C@H](C(=O)N1C[C@@H]2C[C@H]1C(=O)N[C@@H](Cc1ccc3ccccc3c1)C(=O)N[C@H](C(=O)O)Cc1ccc(cc1)OCc1cn(nn1)[C@H]1C[C@@H](C(=O)N[C@@H](Cc3ccc4ccccc4c3)C(=O)N[C@H](C(=O)NS(=O)(=O)c3ccc(OC(F)(F)F)cc3)Cc3ccc(cc3)OCc3cn2nn3)N(C(=O)[C@@H](NC(=O)[C@H](C)NC)C(C)(C)C)C1)C(C)(C)C` [Compound 1036], the IC50 against His-BIR3 (241-356, XIAP) lay within 10 to 100 nM; in assay [1], 1 to 10 nM.

For `CN[C@@H](C)C(=O)N[C@H](C(=O)N1C[C@@H]2C[C@H]1C(=O)N[C@@H](Cc1ccc3ccccc3c1)C(=O)N[C@H](C(=O)O)Cc1ccc(cc1)-c1cn(nn1)[C@H]1C[C@@H](C(=O)N[C@@H](Cc3ccc4ccccc4c3)C(=O)N[C@H](C(=O)O)Cc3ccc(cc3)OCc3cn2nn3)N(C(=O)[C@@H](NC(=O)[C@H](C)NC)C(C)(C)C)C1)C(C)(C)C` [Compound 1015], the IC50 lay within 10 to 100 nM against His-BIR3 (241-356, XIAP) and 1 to 10 nM in assay [1].

`CN[C@@H](C)C(=O)N[C@H](C(=O)N1C[C@@H]2C[C@H]1C(=O)N[C@@H](Cc1ccc3ccccc3c1)C(=O)N[C@H](C(=O)O)Cc1ccc(cc1)OCc1cn(nn1)[C@H]1C[C@@H](C(=O)N[C@@H](Cc3ccc4ccccc4c3)C(=O)N[C@H](C(=O)NS(=O)(=O)c3ccc4ccccc4c3)Cc3ccc(cc3)OCc3cn2nn3)N(C(=O)[C@@H](NC(=O)[C@H](C)NC)C(C)(C)C)C1)C(C)(C)C` [Compound 1039]: the IC50 against His-BIR3 (241-356, XIAP) lay in the range of 10 to 100 nM; in assay [1], 1 to 10 nM.

Consider `CN[C@@H](C)C(=O)N[C@H](C(=O)N1C[C@@H]2C[C@H]1C(=O)N[C@@H](Cc1ccc3ccccc3c1)C(=O)N[C@H](C(=O)O)Cc1ccc(cc1)OCc1cn(nn1)[C@H]1C[C@@H](C(=O)N[C@@H](Cc3ccc4ccccc4c3)C(=O)N[C@H](C(=O)NC(CO)CO)Cc3ccc(cc3)OCc3cn2nn3)N(C(=O)[C@@H](NC(=O)[C@H](C)NC)C(C)(C)C)C1)C(C)(C)C` [Compound 1042], for which the IC50 at His-BIR3 (241-356, XIAP) lay in the range of 10 to 100 nM; in assay [1], 1 to 10 nM.
